Data taken from patent US20090186766A1, “Heteroaroyl-Substituted Alanines with a Herbicidal Action” (BASF SE, priority 2006, published 2009).

Tests used:
Setaria viridis = experiment: Greenhouse post-emergence herbicidal test; format: in vivo; conditions: application rate 1 kg/ha
Excerpt: (§1) The seeds of the test plants were sown separately for each species. For the post-emergence treatment, the test plants were first grown to a height of 3 to 15 cm, depending on the plant habit, and only then treated with the active compounds which had been suspended or emulsified in water. For this purpose, the test plants were either sown directly and grown in the same containers, or they were first grown separately as seedlings and transplanted into the test containers a few days prior to treatment. The rate of application for the post-emergence treatment was 1.0 kg/ha of a.s. (active substance). Depending on the species, the plants were kept at 10-25° C. or 20-35° C. The test period extended over 2 to 4 weeks. During this time, the plants were tended, and their response to the individual treatments was evaluated. Evaluation was carried out using a scale from 0 to 100. 100 means no emergence of the plants, or complete destruction of at least the aerial parts, and 0 means no damage, or normal course of growth. The plants used in the greenhouse experiments belonged to the following species: [table]

Chenopodium album = experiment: Greenhouse post-emergence herbicidal test; format: in vivo
Excerpt: as §1, with “The rate of application for the post-emergence treatment was 1.0 kg/ha of a.s.” left out

Amaranthus retroflexus = experiment: Greenhouse post-emergence herbicidal test; format: in vivo
Excerpt: as §1, with “The rate of application for the post-emergence treatment was 1.0 kg/ha of a.s.” left out

Galium aparine = experiment: Greenhouse post-emergence herbicidal test; format: in vivo; conditions: application rate 0.25 kg/ha
Excerpt: as §1, with “The rate of application for the post-emergence treatment was 1.0 kg/ha of a.s.” left out

Structure (SMILES) | melting point [°C] | post-emergence action against Setaria viridis (Setaria viridis) | post-emergence action against Chenopodium album (Chenopodium album; application rate 1 kg/ha) | post-emergence action against Amaranthus retroflexus (Amaranthus retroflexus; application rate 1 kg/ha) | post-emergence action against Chenopodium album (Chenopodium album; application rate 0.25 kg/ha) | post-emergence action against Amaranthus retroflexus (Amaranthus retroflexus; application rate 0.25 kg/ha) | post-emergence action against Galium aparine (Galium aparine)
CNC(=O)C(NC(=O)c1cn(C)nc1C(F)(F)F)C(COC(C)=O)c1ccccc1 (single isomer, unassigned) [Compound 3.7, 3-Methylcarbamoyl-3-[(1-methyl-3-trifluoromethyl-1H-pyrazole-4-carbonyl)amino]-2-phenylpropyl Acetate] | – | very good | very good | very good | – | – | –
CNC(=O)C(NC(=O)c1cn(C)nc1C(F)(F)F)C(CO)c1ccccc1 (racemic) [Compound 3.1, N-(3-hydroxy-1-methylcarbamoyl-2-phenyl-propyl)-1-methyl-3-trifluoromethyl-1H-pyrazole-4-carboxamide] | 194 | very good | very good | very good | – | – | –
CNC(=O)C(NC(=O)c1cn(C)nc1C(F)(F)F)C(CO)c1ccccc1 (racemic) [Compound 3.2, N-(3-hydroxy-1-methylcarbamoyl-2-phenyl-propyl)-1-methyl-3-trifluoromethyl-1H-pyrazole-4-carboxamide] | 202 | very good | very good | very good | – | – | –

Second part, led by results:

melting point [°C] | Structure (SMILES) | post-emergence action against Setaria viridis (Setaria viridis) | post-emergence action against Chenopodium album (Chenopodium album; application rate 1 kg/ha) | post-emergence action against Amaranthus retroflexus (Amaranthus retroflexus; application rate 1 kg/ha) | post-emergence action against Chenopodium album (Chenopodium album; application rate 0.25 kg/ha) | post-emergence action against Amaranthus retroflexus (Amaranthus retroflexus; application rate 0.25 kg/ha) | post-emergence action against Galium aparine (Galium aparine)
119 | CNC(=O)[C@H](NC(=O)c1cn(C)nc1C(F)(F)F)[C@H](C[N+](=O)[O-])c1ccccc1 (racemic) [Compound 5.3, 1-Methyl-N-{(1RS,2SR)-1-[(methylamino)carbonyl]-3-nitro-2-phenylpropyl}-3-(trifluoromethyl)-1H-pyrazole-4-carboxamide] | – | – | – | very good | very good | very good
91 | CNC(=O)[C@@H](NC(=O)c1cn(C)nc1C(F)(F)F)[C@H](CN)c1ccccc1 (racemic) [Compound 4.5, N-{(1RS,2RS)-3-Amino-1-[(methylamino)carbonyl]-2-phenylpropyl}-1-methyl-3-(trifluoromethyl)-1H-pyrazole-4-carboxamide] | – | – | – | – | – | –
233 | CNC(=O)[C@H](NC(=O)c1cn(C)nc1C(F)(F)F)[C@H](CNC(=O)C(F)(F)F)c1ccccc1 (racemic) [Compound 4.17, 1-Methyl-N-{(1RS,2SR)-1-[(methylamino)carbonyl]-2-phenyl-3-(2,2,2-trifluoroacetylamino)propyl}-3-(trifluoromethyl)-1H-pyrazole-4-carboxamide] | – | – | – | – | – | –
